Laboratory results published in ChEMBL document CHEMBL1201862, “PubChem BioAssay data set” (2004).
Activity calls are given as the source filed them. For most assays here, no stated cut-off is given here; in the data, actives have a measured EC50 and inactives only a lower limit.

Assays:
H9c2 = test: cells; type: functional, cell-based; conditions: Rattus norvegicus, H9c2, Myocardium;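 further: confirmatory concentration-response retest of ultra-high-throughput screening hits for modulation of myocardial damage; cell death induced by hydrogen peroxide oxidative stress; compound pretreatment for 60 min then peroxide exposure for 2 h; potency is for protecting the cells against peroxide damage rather than for killing them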
[1] = NIH-3T3 fibroblast cytotoxicity, dose response, cytotoxicity control, cell-based, fluorescence, Alamar Blue, secondary assay (AID 2327); type: functional;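 further: NIH-3T3 mouse fibroblasts cultured with fluconazole at 8 µg/mL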
[2] = inhibitors of firefly luciferase expression or activity, dose response, H4 neuroglioma cells, luminescence (AID 1990); type: functional, cell-based
[3] = Luminescence Cell-Based Dose Response HTS to Identify Inhibitors of 5'UTR Stem-Loop Driven Prion Protein mRNA Translation in H4 Neuroglioblastoma Cells. [Related pubchem assays: 1827 (Project Summary), 1813 (Primary HTS)]; type: functional
[4] = inhibitors of SNCA 5'UTR-driven reporter translation, confirmation, H4 neuroglioma cells, luminescence (AID 1988); type: functional, cell-based
[5] = inhibitors of intracellular T. cruzi replication, confirmation, NIH3T3 host cells, beta-gal luminescence (AID 2044); type: functional, cell-based;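 further: intracellular parasites grown in NIH/3T3 mouse fibroblasts as host cells; luminescent beta-galactosidase reporter signal from transgenic T. cruzi replicating inside host cells; inhibitors lower the luminescence signal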
[6] = cytotoxicity toward NIH3T3 fibroblasts, dose response, counter-screen, cell-based, ATP luminescence, mouse fibroblasts (AID 2010); type: functional;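 further: cells exposed to compound for about 90 hours before reading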
BJ [7] = test: cytotoxicity toward BJ-TERT fibroblasts, dose response, cell-based, RAS-independent, luminescence (AID 1933); type: functional; conditions: Homo sapiens
BJ [8] = test: cells; type: functional, cell-based; conditions: Homo sapiens
BJ [9] = test: cytotoxicity toward BJ-TERT-LT-ST fibroblasts, dose response, cell-based, RAS-independent, luminescence (AID 1935); type: functional; conditions: Homo sapiens;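 further: BJ fibroblasts immortalized with TERT plus LT and ST oncogenes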
[10] = cytotoxicity toward DRD oncogenic fibroblasts, dose response, cell-based, non-viral oncogenic, luminescence (AID 1934); type: functional; conditions: Homo sapiens
[11] = P. falciparum Dd2 growth inhibitors, dose response, SYBR Green, cherry-picked samples (AID 1159567); type: functional, cell-based
[12] = target: T1, RNA-binding protein pos-1 (Caenorhabditis elegans, UniProt G5EF15); test: inhibitors of POS-1/mex-3 RNA binding, dose response, biochemical, fluorescence polarization (AID 1964);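 further: purified POS-1 fused to maltose binding protein made in E. coli; potency of compounds blocking POS-1 binding to fluorescent RNA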
T1 sequence (G5EF15 whole entry): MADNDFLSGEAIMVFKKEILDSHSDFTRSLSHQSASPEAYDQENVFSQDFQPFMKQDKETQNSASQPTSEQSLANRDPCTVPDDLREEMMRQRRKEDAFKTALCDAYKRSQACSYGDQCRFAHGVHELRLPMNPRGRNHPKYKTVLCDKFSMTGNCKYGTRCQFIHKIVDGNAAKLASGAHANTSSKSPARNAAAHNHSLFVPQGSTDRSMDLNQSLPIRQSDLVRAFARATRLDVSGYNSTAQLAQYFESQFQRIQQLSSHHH

[13] = target: T2, Zinc finger protein mex-5 (Caenorhabditis elegans, UniProt Q9XUB2); test: MEX-5/TCR-2 RNA interaction inhibitors, dose response, biochemical, C. elegans, fluorescence polarization (AID 1960)
T2 sequence (Q9XUB2 whole entry): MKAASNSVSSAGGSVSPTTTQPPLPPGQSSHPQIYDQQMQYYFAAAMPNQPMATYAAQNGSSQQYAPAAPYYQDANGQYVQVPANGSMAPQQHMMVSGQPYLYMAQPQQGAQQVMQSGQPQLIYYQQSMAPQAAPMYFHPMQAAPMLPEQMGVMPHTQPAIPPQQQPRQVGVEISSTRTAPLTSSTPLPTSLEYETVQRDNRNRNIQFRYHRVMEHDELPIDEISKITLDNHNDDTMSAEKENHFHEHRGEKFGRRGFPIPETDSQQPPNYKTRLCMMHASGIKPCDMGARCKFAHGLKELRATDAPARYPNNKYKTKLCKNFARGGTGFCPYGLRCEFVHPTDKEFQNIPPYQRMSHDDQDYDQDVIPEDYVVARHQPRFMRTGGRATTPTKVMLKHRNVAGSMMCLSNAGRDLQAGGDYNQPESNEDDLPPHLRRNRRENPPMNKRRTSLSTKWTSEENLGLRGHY

[14] = target: FAD-linked sulfhydryl oxidase ALR (Homo sapiens, UniProt P55789); test: inhibitors of human ALR sulfhydryl oxidase, dose response, biochemical, H2O2 detection, luminescence, cherry-pick (AID 493248)
[15] = target: T3, Calpain-2 catalytic subunit (Sus scrofa, UniProt P43367); test: pig calpain II inhibitor potency, dose response, biochemical, fluorogenic peptide substrate (AID 1420); type: functional
T3 sequence (P43367 whole entry): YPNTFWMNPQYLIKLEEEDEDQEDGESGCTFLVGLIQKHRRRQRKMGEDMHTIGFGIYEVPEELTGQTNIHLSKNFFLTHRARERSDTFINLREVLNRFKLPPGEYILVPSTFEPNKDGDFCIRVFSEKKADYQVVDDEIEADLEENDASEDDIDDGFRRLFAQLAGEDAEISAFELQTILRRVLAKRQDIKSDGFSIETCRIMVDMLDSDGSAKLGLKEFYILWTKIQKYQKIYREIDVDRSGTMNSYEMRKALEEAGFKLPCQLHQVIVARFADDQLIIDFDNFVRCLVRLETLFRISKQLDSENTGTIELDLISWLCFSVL

[16] = growth suppression of PTEN-null colon cells, dose response, cell-based, HCT116 PTEN knockout (AID 1047); type: functional;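 further: HCT116 colon tumor cells with PTEN knocked out; cells exposed to compound for 60 hours before readout; potency for loss of cell viability measured by luminescence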
[17] = inhibitors of HIV Env-driven cell fusion, dose response, cherry-pick (AID 652057); type: functional, cell-based
[18] = inhibitors of clade B AD8 Env fusion, dose response, cell-based, cherry-pick (AID 652062); type: functional;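 further: luciferase signal from cell-cell fusion driven by HIV-1 clade B AD8 Env; potency is for inhibitors of fusion seen as a drop in luminescence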

Sequence of FAD-linked sulfhydryl oxidase ALR (P55789 whole entry): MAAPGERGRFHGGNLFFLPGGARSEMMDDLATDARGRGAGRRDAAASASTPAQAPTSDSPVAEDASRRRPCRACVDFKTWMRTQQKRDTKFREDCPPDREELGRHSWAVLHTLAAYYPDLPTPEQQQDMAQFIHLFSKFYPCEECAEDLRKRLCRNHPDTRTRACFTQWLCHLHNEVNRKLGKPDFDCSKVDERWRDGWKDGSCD

O=C(CSc1nc(O)c2ccccc2n1)c1ccc(O)cc1O
IC50 (H9c2): > 79 µM (inactive)

Nc1c(S(=O)(=O)c2cccc(Cl)c2)c2nc3ccccc3nc2n1/N=C/c1ccc(O)c(O)c1
EC50 [1]: > 160 µM (inconclusive) | EC50 [2]: 11.4 µM (active) | EC50 [3]: 12.5 µM (active) | EC50 [4]: 9.66 µM (active) | EC50 [5]: 3.16 µM (active) | EC50 [6]: 6.98 µM (active)

Cc1c(C(=O)c2ccc(Cl)c([N+](=O)[O-])c2)c2ccccn2c1CCC#N
EC50 (BJ [7]): > 150 µM (not active) | EC50 (BJ [8]): > 150 µM (not active) | EC50 (BJ [9]): > 150 µM (inconclusive) | EC50 [10]: > 150 µM (not active)

O=C(C1CCCCC1)N1CC(=O)N2[C@H](CO)[C@@H](c3ccc(C#CCc4ccccc4)cc3)[C@@H]2C1
AC50 [11]: 5.61 µM (active)

Cc1ccc(-c2nnc(O)c3ccccc23)cc1S(N)(=O)=O
IC50 (H9c2): 21.8 µM (active)

CCOc1ccccc1N1CCN(C(=O)CNC(=O)c2ccccc2F)CC1
EC50 [12]: > 300 µM (not active) | EC50 [13]: > 300 µM (not active)

COc1ccc(C2=NOC(Cn3c(Cc4ccc(Cl)cc4)nc4c3c(=O)n(C)c(=O)n4C)C2)cc1 (centres undefined)
EC50 [2]: > 120 µM (not active) | EC50 [3]: > 120 µM (not active) | EC50 [4]: > 120 µM (not active)

C[C@H]1CN([C@@H](C)CO)C(=O)c2c(c3ccccc3n2C)-c2ccccc2CO[C@@H]1CN(C)Cc1ccc(Oc2ccccc2)cc1
AC50 [11]: 1.76 µM (active)

O=C(NCCCn1ccnc1)C(=O)NCC(c1ccco1)N1CCN(c2ccccc2)CC1 (centres undefined)
AC50 [14]: 3.74 µM (active)

COc1ccc(-n2c(=S)[nH]c3cc(C(=O)Nc4ccc(OC)c(OC)c4)ccc3c2=O)cc1
IC50 [15]: 22.5 µM (not active)

O=C(CNC(=O)c1[nH]cnc1C(=O)NC(c1ccccc1)c1ccccc1)OCc1ccccc1
IC50 (H9c2): > 79 µM (inactive)

c1ccc(Oc2nc(Oc3ccccc3)nc(N3CCOCC3)n2)cc1
IC50 [15]: < 0.4 µM (not active)

COC(=O)N/N=C/c1cn(Cc2ccc(F)cc2)c2ccccc12
EC50 [2]: 9.2 µM (active) | EC50 [3]: 12.8 µM (active) | EC50 [4]: 7.94 µM (active)

O=C(O)c1cccc(NC(=O)c2cc(-c3cccc(Cl)c3)nc3ccccc23)c1
AC50 [14]: 0.01 µM (active)

CC(C)OC(=O)CSc1nnc(COc2ccc([N+](=O)[O-])cc2)n1C
IC50 [15]: 9.11 µM (not active)

CC(=O)Nc1nc2ccccc2n1Cc1ccccc1C
EC50 [2]: 14.5 µM (active) | EC50 [3]: 14.2 µM (active) | EC50 [4]: 11.5 µM (active)

COc1ccccc1NC(=O)c1cc(O)nc2ccccc12
AC50 [14]: 0.202 µM (active)

COc1cc(OC)cc(C(=O)Nc2ccc3c(c2)COC3=O)c1
IC50 [15]: 5.36 µM (not active)

O=C(Nc1ccccc1)c1nc[nH]c1C(=O)NCCNC(=O)c1[nH]cnc1C(=O)Nc1ccccc1
IC50 (H9c2): > 79 µM (inactive)

O=S(=O)(c1ccccc1)c1cc(O)ccc1O
AC50 [14]: 6.08 µM (active)

N#C[C@@H]1[C@H](c2ccccc2-c2cccc(F)c2)[C@H](CO)N1C(=O)C1CCCC1
AC50 [11]: 2.8 µM (active)

O=C(CCN1C(=O)/C(=C/c2ccc3c(c2)OCO3)SC1=S)Nc1ccccc1
IC50 [15]: 24.8 µM (not active)

COc1ccc(C(=O)NNC2=Nc3cccc4cccc2c34)cc1
EC50 [2]: > 120 µM (not active) | EC50 [3]: 16.6 µM (active) | EC50 [4]: > 120 µM (not active)

COc1ccc(N2CCN(C(=O)CCn3nnc4ccccc43)CC2)cc1
AC50 [14]: 6.11 µM (active)

COc1ccc(CCn2c(=O)c3cccnc3n(Cc3ccc([N+](=O)[O-])cc3)c2=O)cc1OC
IC50 (H9c2): > 79 µM (inactive)

O=C(CCC(=O)c1cccs1)Nc1ccc(N2CCCCC2)cc1
AC50 [14]: 6.49 µM (active)

C[C@H]1CN([C@@H](C)CO)C(=O)c2c(c3ccccc3n2C)-c2ccccc2CO[C@@H]1CN(C)S(=O)(=O)c1ccc(C(F)(F)F)cc1
AC50 [11]: 4.6 µM (active)

CC(C)c1ccc(Nc2c([N+](=O)[O-])c(=O)n(C)c3ccccc23)cc1
IC50 [15]: 3.37 µM (not active)

COc1cccc2c(N/N=C/c3ccccc3)cc(C)nc12
AC50 [14]: 6.41 µM (active)

COc1cccc(CN2CC3(CN(Cc4ccccn4)C3)c3c([nH]c4cc(OC)ccc34)[C@@H]2CO)c1
AC50 [11]: 6.62 µM (active)

CCCn1c(SCC(=O)c2ccc3c(c2)NC(=O)CO3)nc2ccccc21
EC50 [16]: 22.4 µM (active)

COc1cc(C2C(C#N)=C(N)OC3=C2C(=O)CC(C)(C)C3)cc([N+](=O)[O-])c1O (centres undefined)
EC50 [12]: > 300 µM (not active) | EC50 [13]: > 300 µM (not active)

CCc1cccc(CC)c1NC(=O)c1cc(CN2C(=O)c3ccccc3C2=O)ccc1OC
IC50 [15]: 3.81 µM (not active)

C=CCOC(=O)COc1ccc2c3c(c(=O)oc2c1)CCCC3
IC50 (H9c2): 14.5 µM (active)

CSCCC(NS(=O)(=O)c1ccccc1)C(=O)OCc1cc(=O)oc2cc(O)ccc12 (centres undefined)
IC50 (H9c2): > 79 µM (inactive)

COc1cc(/C=N/n2c(C)nnc2S)ccc1OCc1ccccc1
AC50 [14]: 0.861 µM (active)

COc1ccc(OC)c(C2=C/C(=C/c3ccccn3)C(=O)O2)c1
EC50 [12]: > 300 µM (not active) | EC50 [13]: 45.8 µM (active)

OC[C@@H]1Nc2ccc(C3=CCCCC3)cc2[C@@H]2[C@H]1CCN2Cc1nccs1
AC50 [11]: 6.24 µM (active)

Cc1ccc(C(=O)NNC(=O)c2ccc3ncccc3c2)cc1
IC50 [15]: 9.29 µM (not active)

O=c1[nH]c(CSc2ncccn2)nc2c1cnn2-c1ccccc1
EC50 [12]: 166 µM (inconclusive) | EC50 [13]: > 300 µM (not active)

Cc1ccc(S(=O)(=O)N(C)C[C@H]2Oc3ncc(Br)cc3C(=O)N([C@@H](C)CO)C[C@@H]2C)cc1
AC50 [17]: 4.57 µM (active) | AC50 [18]: 5.51 µM (active)

Cn1nc(CC(=O)N2CCN(c3ccccc3)CC2)c2ccccc2c1=O
IC50 [15]: 13.1 µM (not active)

Cc1cc(C=C2C(=O)c3ccccc3C2=O)c(C)n1-c1ccc(C(=O)O)cc1
EC50 [12]: > 300 µM (not active) | EC50 [13]: > 300 µM (not active)

COc1cc2c(cc1OC)CN(C(=O)c1cc(=O)c3ccccc3o1)CC2
EC50 (BJ [7]): 18.6 µM (active) | EC50 (BJ [8]): 43.3 µM (active) | EC50 (BJ [9]): > 150 µM (inconclusive) | EC50 [10]: 14.1 µM (active)
